In patent US20220204510A1, “2,3-DIHYDRO-1H-PYRROLIZINE-7-FORMAMIDE DERIVATIVE AND APPLICATION THEREOF” (CHIA TAI TIANQING PHARMACEUTICAL GROUP CO., LTD., priority 2018, published 2022):

How the values were obtained:
[1] = Experiment on the liver-to-blood ratio in Balb/c mice, oral administration; type: in vivo; conditions: oral 3 mg/kg, Balb/c female mice; for AUC0-last: Liver; for Kp / AUC(0-t): mouse; for Kp: liver (tissue homogenate) / plasma, read-out: AUC Ratio (L/P) Liver/plasma exposure ratio; for AUC(0-t): Plasma
Procedure: Experiment on the liver-to-blood ratio in Balb/c mice orally administered with the test compound Compound 18 was mixed with an aqueous solution containing 10% polyethylene glycol-15 hydroxystearate, and the mixture was vortexed and sonicated to prepare a 0.3 mg/mL uniform suspension for later use. Balb/c female mice aged 7 to 10 weeks were orally administered with the candidate compound solution at a dose of 3 mg/kg. Whole blood at a certain time point was collected and plasma was prepared. Liver tissues at the corresponding time point were collected to prepare a tissue homogenate. Drug concentration was analyzed by LC-MS/MS and pharmacokinetic parameters were calculated with Phoenix WinNonlin software. Compound 25 was mixed with an aqueous solution containing 10% polyethylene glycol-15 hydroxystearate, and the mixture was vortexed and sonicated to prepare a 0.3 mg/mL clear solution for later use. Balb/c female mice aged 7 to 10 weeks were orally administered with the candidate compound solution at a dose of 3 mg/kg. Whole blood at a certain time point was collected and plasma was prepared. Liver tissues at the corresponding time point were collected to prepare a tissue homogenate. Drug concentration was analyzed by LC-MS/MS and pharmacokinetic parameters were calculated with Phoenix WinNonlin software.

[2] = Pharmacokinetic study in Balb/c mice by oral administration and intravenous injection; type: in vivo; conditions: mouse, plasma, Balb/c female mice; for bioavailability / AUC / Cmax / Tmax: 3 mg/kg; for bioavailability: PO (3 mpk) vs IV (1 mg/kg), read-out: Bioavailability F; for AUC / Cmax / Tmax: PO (3 mpk); for AUC: read-out: Area under the plasma concentration-time curve AUC; for Cmax: read-out: Peak concentration Cmax; for Tmax: read-out: Peak time Tmax; for Vd / AUC(0-t) / clearance / half-life: IV (1 mg/kg); for Vd: read-out: Apparent volume of distribution Vdss; for AUC(0-t): read-out: Area under the plasma concentration-time curve AUC0-24 h; for clearance: read-out: Clearance CL; for half-life: read-out: Half-life T1/2 (converted)
Procedure: Pharmacokinetic study of the test compound in Balb/c mice by oral administration and intravenous injection: The test compound was mixed with a solution containing dimethyl sulfoxide (10%), polyethylene glycol 400 (60%) and water (30%), and the mixture was vortexed and sonicated to prepare a 0.2 mg/mL clear solution, which was filtered through a millipore filter for later use. Balb/c female mice aged 7 to 10 weeks were intravenously injected with the candidate compound solution at a dose of 1 mg/kg. The test compound was mixed with an aqueous solution containing 10% polyoxyethylene stearate, and the mixture was vortexed and sonicated to prepare a 0.3 mg/mL clear solution for later use. Balb/c female mice aged 7 to 10 weeks were orally administered with the candidate compound solution at a dose of 3 mg/kg. Whole-blood was collected and plasma was prepared. Drug concentration was analyzed by LC-MS/MS and pharmacokinetic parameters were calculated with Phoenix WinNonlin software.

[3] = system: hepatitis B virus; assay: In vivo efficacy in the HDI/HBV mouse model; conditions: HDI/HBV mice
From the text: Experimental objective: to assay the efficacy of the compound against hepatitis B virus in mice through the HDI/HBV mouse model.
Preparation of compound: the solvent was an aqueous solution containing 10% polyethylene glycol-15 hydroxystearate; a certain amount of the test compounds 18 and 25 were separately dissolved in an aqueous solution containing 10% polyethylene glycol-15 hydroxystearate, and the mixtures were vortexed and sonicated to prepare uniform suspensions. The suspensions were stored at 4° C. for later use.
High pressure injection of the HBV plasmid DNA solution via the tail vein of mice: the day of plasmid injection was day 0, the day after injection was day 1, and so on. On day 0, all mice were injected with normal saline containing 10 μg of plasmid DNA via their tail veins at a dose of 8% of body weight, and the injection was completed within 5 s.
Administration: all mice were administered intragastrically twice a day (8/16 h interval) on day 1-6 and once on day 7. All mice were euthanized in the afternoon on day 7. The body weight of the mice, which was monitored every day, remained stable throughout the experiment.
Sample collection: blood was collected from the submandibular vein 4 h after the first administration in the morning on days 1, 3, and 5. All blood samples were collected in K2-EDTA anticoagulation tubes, and centrifuged for 10 min at 4° C., 7000 g to prepare about 40 μL of plasma. All mice were euthanized by CO2 four hours after administration in the morning on day 7. Blood was collected from the heart, and the plasma preparation method was the same as above. Two liver tissues were collected with 70-100 mg each, and quick-frozen by liquid nitrogen. After all samples were collected, they were stored in a −80° C. refrigerator for HBV DNA content detection.
Sample analysis: all plasma samples and liver samples were detected for HBV DNA by qPCR.

[4] = molecular target: T1, CYP2C9 (Homo sapiens, UniProt P11712); assay: Inhibition of human liver microsomal cytochrome P450 isoenzymes; type: in vitro ADME; conditions: human liver microsomes
T1 construct: from tissue; host or cells: human liver microsomes
T1 sequence (P11712 whole entry): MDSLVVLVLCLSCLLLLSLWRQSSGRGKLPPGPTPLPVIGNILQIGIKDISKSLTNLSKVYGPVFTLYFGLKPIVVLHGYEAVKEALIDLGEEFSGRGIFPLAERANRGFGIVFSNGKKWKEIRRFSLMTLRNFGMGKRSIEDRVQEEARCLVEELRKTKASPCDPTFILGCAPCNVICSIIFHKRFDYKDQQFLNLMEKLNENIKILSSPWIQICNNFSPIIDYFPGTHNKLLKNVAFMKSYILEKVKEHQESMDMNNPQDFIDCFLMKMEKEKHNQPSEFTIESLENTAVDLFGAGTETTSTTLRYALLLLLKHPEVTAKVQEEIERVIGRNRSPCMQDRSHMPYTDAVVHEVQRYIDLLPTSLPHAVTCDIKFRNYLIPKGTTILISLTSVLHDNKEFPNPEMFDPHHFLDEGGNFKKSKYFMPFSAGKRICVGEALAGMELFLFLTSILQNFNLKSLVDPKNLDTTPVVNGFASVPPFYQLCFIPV
Procedure: (§1) Experimental objective: to determine the inhibitory effect of the test compound on the activity of human liver microsomal cytochrome P450 isoenzymes (CYP1A2, CYP2C9, CYP2C19, CYP2D6 and CYP3A4). Experimental procedures: first, the test compound (10 mM) was diluted in gradient to prepare working solutions (100× final concentration) at concentrations of: 5, 1.5, 0.5, 0.15, 0.05, 0.015, and 0.005 mM, and working solutions of positive inhibitors for P450 isoenzymes (CYP1A2, CYP2C9, CYP2C19, CYP2D6, and CYP3A4) and the specific substrate mixtures thereof (5 in 1) were prepared simultaneously; human liver microsomes frozen in a−80° C. refrigerator were thawed on ice, and after all thawed, the human liver microsomes were diluted with PB to prepare a working solution at a specific concentration (0.253 mg/mL); 20 μL of the substrate mixture (20 μL of PB was added into the blank well) and 158 μL of the working solution of human liver microsomes were added into the reaction plate which was then placed on ice for use; then 2 μL of the test compound at each concentration (N=1) and a specific inhibitor (N=2) were added into the corresponding well, and the group without the inhibitor (test compound or the positive inhibitor) was added with a corresponding organic solvent as a control sample (the test compound control sample was 1:1 DMSO:MeOH; the positive control sample was 1:9 DMSO:MeOH); after pre-incubation under a 37° C. water bath for 10 min, 20 μL of a coenzyme factor (NADPH) solution was added into the reaction plate and incubated under a 37° C. water bath for 10 min, 400 μL of a cold acetonitrile solution (the internal standard was 200 ng/mL Tolbutamide and Labetalol) was added to terminate the reaction, and the reaction plate was placed on a shaker and shaken for 10 min; after centrifugation at 4,000 rpm for 20 min, 200 μL of the supernatant was collected and added to 100 μL of water to dilute the sample, and, finally, the plate was sealed, oscillated shaken evenly, and subjected to LC/MS/MS detection.

[5] = molecular target: T2, CYP2D6 (Homo sapiens, UniProt P10635); assay: as above; type: in vitro ADME; conditions: human liver microsomes
T2 construct: from tissue; host or cells: human liver microsomes
T2 sequence (P10635 whole entry): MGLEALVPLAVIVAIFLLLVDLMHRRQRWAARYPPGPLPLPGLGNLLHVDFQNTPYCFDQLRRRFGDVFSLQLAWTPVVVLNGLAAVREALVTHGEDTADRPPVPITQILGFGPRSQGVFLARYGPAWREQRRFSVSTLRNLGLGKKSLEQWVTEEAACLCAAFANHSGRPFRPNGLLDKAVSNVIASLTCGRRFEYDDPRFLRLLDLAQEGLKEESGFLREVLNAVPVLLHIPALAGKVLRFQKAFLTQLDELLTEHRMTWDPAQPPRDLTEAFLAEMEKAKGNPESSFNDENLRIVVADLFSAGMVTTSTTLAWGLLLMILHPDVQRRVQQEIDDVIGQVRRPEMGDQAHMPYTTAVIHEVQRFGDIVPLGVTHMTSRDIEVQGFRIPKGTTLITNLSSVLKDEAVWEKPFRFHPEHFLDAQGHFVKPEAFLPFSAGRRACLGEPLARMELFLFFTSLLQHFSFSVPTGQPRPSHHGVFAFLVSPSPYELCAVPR
Procedure: as §1

[6] = molecular target: T3, CYP2C19 (Homo sapiens, UniProt P33261); assay: as above; type: in vitro ADME; conditions: human liver microsomes
T3 construct: from tissue; host or cells: human liver microsomes
T3 sequence (P33261 whole entry): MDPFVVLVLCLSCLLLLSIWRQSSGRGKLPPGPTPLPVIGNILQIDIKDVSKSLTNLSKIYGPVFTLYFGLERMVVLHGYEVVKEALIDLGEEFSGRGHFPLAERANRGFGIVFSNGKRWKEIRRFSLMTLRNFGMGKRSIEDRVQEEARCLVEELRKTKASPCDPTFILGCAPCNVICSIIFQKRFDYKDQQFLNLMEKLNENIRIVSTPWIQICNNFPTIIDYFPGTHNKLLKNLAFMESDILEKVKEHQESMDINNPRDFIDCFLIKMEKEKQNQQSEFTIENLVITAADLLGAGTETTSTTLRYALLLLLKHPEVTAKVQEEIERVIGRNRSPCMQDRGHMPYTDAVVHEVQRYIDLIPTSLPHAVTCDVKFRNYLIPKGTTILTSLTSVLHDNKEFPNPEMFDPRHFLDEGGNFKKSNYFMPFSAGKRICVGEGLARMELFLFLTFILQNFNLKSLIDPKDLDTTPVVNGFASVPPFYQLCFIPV
Procedure: as §1

[7] = 30 mg/kg intragastrically twice a day
[8] = 10 mg/kg intragastrically twice a day

SMILES	AUC0-last [1]	Kp [1]	AUC(0-t) [1]	bioavailability [2]	AUC [2]	Cmax [2]	Tmax [2]	Vd [2]	AUC(0-t) [2]	clearance [2]	half-life [2]	HBV-DNA reduction Liver (day 7) [3, 7]	HBV-DNA reduction Plasma (day 5) [3, 7]	IC50 [4]	IC50 [5]	IC50 [6]	HBV-DNA reduction Liver (day 7) [3, 8]	HBV-DNA reduction Plasma (day 5) [3, 8]
C[C@]1(NC(=O)C(=O)c2c(Cl)c(C(=O)Nc3ccc(F)c(F)c3)c3n2CCC3)CC[C@H](CC(=O)O)CC1 [Compound 18]	75412 nmol·h/kg	20.4	3.69 µM·h	271%	5.02 µM·h	1460 nM	0.5 h	8.8 L/kg	0.617 µM·h	50.1 mL/min/kg	2.8 h	1.99 Δ Log10 copies/100 ng	2.84 Δ Log10 copies/μL	> 50 µM	> 50 µM	> 50 µM		
C[C@]1(NC(=O)C(=O)c2c(Cl)c(C(=O)Nc3cc(F)c(F)c(F)c3)c3n2CCC3)CC[C@H](CC(=O)O)CC1 [Compound 25]	86036 nmol·h/kg	24.7	3.48 µM·h	51%	2.27 µM·h	1480 nM	0.5 h	3.1 L/kg	1.49 µM·h	20 mL/min/kg	1.95 h	2.36 Δ Log10 copies/100 ng	3.57 Δ Log10 copies/μL	> 50 µM	> 50 µM	> 50 µM	0.94 Δ Log10 copies/100 ng	2.0 Δ Log10 copies/μL
